Source: US20240101599A1, “PEPTIDE, CELL GROWTH PROMOTER, PROTEIN PRODUCTION PROMOTER, CULTURE MEDIUM, CELL GROWTH METHOD USING PEPTIDE, AND PROTEIN PRODUCTION METHOD USING PEPTIDE” (Maruhachi Muramatsu, Inc., priority 2020, published 2024)

Experiments:
CHO-K1 [1] = test: Relationship between concentration of each peptide solution and viable cell count (absorbance); assay type: cell-based; settings: for Absorbance (450 nm): 5 days, MEMα without FBS, n = 3 average, 0 mM = 0.0000; for cell growth promotion, order of the peptides: in words, promoted in the order GEK, DGP, AGK, GPP, GGP, AEK, AGG, ASN, EGK (strongest first)
Description: Peptides having the sequences of Gly-Glu-Lys (GEK), Asp-Gly-Pro (DGP), Ala-Gly-Lys (AGK), Gly-Pro-Pro (GPP), Gly-Gly-Pro (GGP), Ala-Glu-Lys (AEK), Ala-Gly-Gly (AGG), Ala-Ser-Asn (ASN), and Glu-Gly-Lys (EGK), and Gly-Gly-Gly (GGG) are synthesized to prepare each of peptide solutions at 10-fold concentrations shown in Tables 1 to 10.
A cell suspension prepared such that CHO-K1 (RI KEN BioResource Research Center, cell number: RCB2330) was at 3×10^4 cells/mL was seeded in a 96-well plate at 100 μL/well and cultured in an incubator at 37° C. and 5% CO2 for 24 hours. As a culture medium, an MEMα culture medium (Gibco) containing 10% FBS was used.
After removing the culture medium from each well and washing with the MEMα culture medium (100 μL), 90 μL of a new MEMa culture medium was dispensed into each well, and each peptide solution (10 μL) was added (total 100 μL/well) such that final concentrations were within a range of 0 mM to 5 mM as shown in Tables 1 to 10 to perform culture for 5 days. A similar culture test was performed using a system containing neither peptide nor FBS as a comparative sample. After culturing for 5 days, 10 μL/well of a viable cell count measurement reagent SF (Nacalai Tesque Inc.) was added, and a color reaction was carried out in an incubator at 37° C. and 5% CO2 for 2 hours to measure an absorbance at 450 nm with a plate reader. A reference wavelength was 630 nm. It was confirmed that the absorbance at 450 nm correlated with the cell number.
The above preparation, culture, and measurement were performed with n=3, and Tables 1 to 10 and FIGS. 1 to 10 show the absorbance at the concentration of each peptide solution.

CHO-K1 [2] = test: Cell growth test of each peptide on coating agent for 5 days; assay type: cell-based; design: Viability, 1 / Viability, 2 / Viability, 3 / Viability, Mean: unit not given here; settings: 2.0 mM Ala-Gly-Lys, 2.1 mM Gly-Glu-Lys, 2.5 mM Gly-Gly-Gly, poly-L-lysine coating
Description: Peptides having the sequences of Asp-Gly-Pro (DGP), Ala-Gly-Lys (AGK), Gly-Glu-Lys (GEK), and Gly-Gly-Gly (GGG) were synthesized to prepare each peptide solution such that the concentration was a concentration at which the cell number increased the most within a range of 0 mM to 5 mM. In other words, Asp-Gly-Pro (DGP) was adjusted to 22 mM, Ala-Gly-Lys (AGK) was adjusted to 20 mM, Gly-Glu-Lys (GEK) was adjusted to 21 mM, and Gly-Gly-Gly (GGG) was adjusted to 25 mM, and an amount of 1/10 of the total culture medium volume was added to each well immediately before the cell culture test such that final concentrations were 2.2 mM, 2.0 mM, 2.1 mM, and 2.5 mM, respectively. Poly-L-lysine (Peptide Institute, Inc., Poly-L-Lysine Hydrochloride, code: 3075) was prepared to 0.1 mg/mL, and 200 μL was dispensed into each well of a 24-well plate, which was left to stand in an incubator at 37° C. for 2 hours. After removing the residual liquid with an aspirator, rinsing was performed with distilled water, irradiation was performed with a UV lamp in a clean bench without a lid, and drying was performed overnight to sterilize. A cell suspension prepared such that CHO-K1 (RIKEN BioResource Research Center, cell number: RCB2330) was at 4×10^4 cells/mL was seeded in each well of a 24-well plate at 500 μL/well and cultured in an incubator at 37° C. and 5% CO2 for 24 hours. As a culture medium, an MEMα culture medium (Gibco) containing 10% FBS was used.
After removing the culture medium from each well and washing with the MEMα culture medium (500 μL), 450 μL of a new MEMα culture medium was dispensed into each well, and each peptide solution (50 μL) was added (total 500 μL/well) to perform culture for 5 days. The cells were recovered to count the cell number. A similar culture test was performed using a system containing neither peptide nor FBS as a comparative sample.
The culture medium in each well was recovered in a 1.5 mL tube to be rinsed with 200 μL of MEMα, and the rinsed liquid was also recovered in the same 1.5 mL tube. Thereafter, 100 μL of trypsin was added and incubated for 3 minutes. After rinsing with 300 μL of MEMα containing 10% FBS, the rinsed liquid was also recovered in the same 1.5 mL tube. After rinsing again with 200 μL of MEMα containing 10% FBS, the rinsed liquid was also recovered in the same 1.5 mL tube.
A centrifugation operation was performed on the cells recovered in the 1.5 mL tube. The centrifugation conditions were 1,000 rpm, 10 minutes, and 4° C.
The supernatant was removed, and 300 μL of Cold PBS (phosphate buffered saline) was added to perform a centrifugation operation under the same conditions. The present operation was repeated twice.
Suspension was carried out with 100 μL of Binding Buffer, and 2 μL of propidium iodide (PI) was added and stirred in the tube to cause a reaction for 15 minutes at room temperature and with light shielding. Thereafter, the viable cell count and the cell viability were measured with a flow cytometer.
The above preparation, culture, and measurement were performed with n=3. Table 15 and FIG. 15 show the viable cell count in each peptide solution, and Table 16 and FIG. 16 show the cell viability in each peptide solution.

[3] = replicate 1, 2.2 mM Asp-Gly-Pro
[4] = replicate 2, 2.2 mM Asp-Gly-Pro
[5] = replicate 3, 2.2 mM Asp-Gly-Pro

Question: Gly-Gly-Pro [GGP] was tested. Which “Absorbance (450 nm)” value (CHO-K1 [1]; 0.135 mM peptide) did it give?
Answer: Its value is 0.0420.

Question: What about the “Absorbance (450 nm)” value (CHO-K1 [1]; 0.270 mM peptide) of the same substance?
Answer: The value was 0.0966.

Question: And the “Absorbance (450 nm)” value (CHO-K1 [1]; 0.539 mM peptide)?
Answer: Its value is 0.2946.

Question: And the “Absorbance (450 nm)” value (CHO-K1 [1]; 1.08 mM peptide)?
Answer: The value was 0.4653.

Question: What about the “Absorbance (450 nm)” value (CHO-K1 [1]; 2.16 mM peptide) of the same substance?
Answer: Its value is 0.5483.

Question: What about the “Absorbance (450 nm)” value (CHO-K1 [1]; 4.31 mM peptide) of the same substance?
Answer: Its value is 0.3286.

Question: What about the “cell growth promotion, order of the peptides” value (from here on “cell growth promotion, order”) (CHO-K1 [1]) of the same substance?
Answer: Its value is “cell growth was promoted”.

Question: Glu-Gly-Lys [EGK] was tested. Which “Absorbance (450 nm)” value (CHO-K1 [1]; 0.128 mM peptide) did it give?
Answer: Its value is 0.0383.

Question: And the “Absorbance (450 nm)” value (CHO-K1 [1]; 0.257 mM peptide)?
Answer: Its value is 0.1123.

Question: And the “Absorbance (450 nm)” value (CHO-K1 [1]; 0.512 mM peptide)?
Answer: The value was 0.0893.

Question: What about the “Absorbance (450 nm)” value (CHO-K1 [1]; 1.02 mM peptide) of the same substance?
Answer: The value was 0.1503.

Question: And the “Absorbance (450 nm)” value (CHO-K1 [1]; 2.05 mM peptide)?
Answer: The value was 0.1876.

Question: What about the “Absorbance (450 nm)” value (CHO-K1 [1]; 4.10 mM peptide) of the same substance?
Answer: The value was 0.2373.

Question: What about the “cell growth promotion, order” value (CHO-K1 [1]) of the same substance?
Answer: Its value is “cell growth was promoted”.

Question: Ala-Ser-Asn was tested. Which “Absorbance (450 nm)” value (CHO-K1 [1]; 0.138 mM peptide) did it give?
Answer: Its value is −0.0527.

Question: What about the “Absorbance (450 nm)” value (CHO-K1 [1]; 0.276 mM peptide) of the same substance?
Answer: The value was −0.0250.

Question: And the “Absorbance (450 nm)” value (CHO-K1 [1]; 0.552 mM peptide)?
Answer: Its value is −0.0214.

Question: What about the “Absorbance (450 nm)” value (CHO-K1 [1]; 1.10 mM peptide) of the same substance?
Answer: The value was −0.0224.

Question: And the “Absorbance (450 nm)” value (CHO-K1 [1]; 2.21 mM peptide)?
Answer: Its value is 0.1170.

Question: What about the “Absorbance (450 nm)” value (CHO-K1 [1]; 4.42 mM peptide) of the same substance?
Answer: Its value is 0.3320.

Question: And the “cell growth promotion, order” value (CHO-K1 [1])?
Answer: Its value is “cell growth was promoted”.

Question: With Gly-Gly-Gly [GGG, reference compound] as the substance, how does the “Absorbance (450 nm)” value (CHO-K1 [1]; 0.156 mM peptide) read?
Answer: The value was 0.0067.

Question: What about the “Absorbance (450 nm)” value (CHO-K1 [1]; 0.313 mM peptide) of the same substance?
Answer: The value was 0.0037.

Question: What about the “Absorbance (450 nm)” value (CHO-K1 [1]; 0.625 mM peptide) of the same substance?
Answer: Its value is 0.0027.

Question: What about the “Absorbance (450 nm)” value (CHO-K1 [1]; 1.25 mM peptide) of the same substance?
Answer: The value was −0.0013.

Question: And the “Absorbance (450 nm)” value (CHO-K1 [1]; 2.5 mM peptide)?
Answer: The value was 0.0013.

Question: And the “Absorbance (450 nm)” value (CHO-K1 [1]; 5 mM peptide)?
Answer: Its value is 0.0083.

Question: And the “Cells cell count, Mean” value (CHO-K1 [2]; mean n=3, 2.2 mM Asp-Gly-Pro)?
Answer: The value was 0.0502 ×10^4.

Question: And the “Viability, Mean” value (CHO-K1 [2]; mean n=3, 2.2 mM Asp-Gly-Pro)?
Answer: Its value is 1.7.

Question: What about the “Cells cell count, 1” value (CHO-K1 [2]; [3]) of the same substance?
Answer: Its value is 0.1360 ×10^4.

Question: And the “Viability, 1” value (CHO-K1 [2]; [3])?
Answer: Its value is 4.45.

Question: And the “Cells cell count, 2” value (CHO-K1 [2]; [4])?
Answer: The value was 0.0080 ×10^4.

Question: And the “Viability, 2” value (CHO-K1 [2]; [4])?
Answer: The value was 0.31.

Question: What about the “Cells cell count, 3” value (CHO-K1 [2]; [5]) of the same substance?
Answer: The value was 0.0065 ×10^4.

Question: What about the “Viability, 3” value (CHO-K1 [2]; [5]) of the same substance?
Answer: The value was 0.21.

Question: With Ala-Gly-Gly [AGG] as the substance, how does the “Absorbance (450 nm)” value (CHO-K1 [1]; 0.156 mM peptide) read?
Answer: Its value is 0.0277.

Question: And the “Absorbance (450 nm)” value (CHO-K1 [1]; 0.313 mM peptide)?
Answer: The value was 0.0274.

Question: What about the “Absorbance (450 nm)” value (CHO-K1 [1]; 0.625 mM peptide) of the same substance?
Answer: Its value is 0.0967.

Question: And the “Absorbance (450 nm)” value (CHO-K1 [1]; 1.25 mM peptide)?
Answer: Its value is 0.2064.

Question: And the “Absorbance (450 nm)” value (CHO-K1 [1]; 2.5 mM peptide)?
Answer: Its value is 0.3357.

Question: What about the “Absorbance (450 nm)” value (CHO-K1 [1]; 5 mM peptide) of the same substance?
Answer: The value was 0.2080.

Question: What about the “cell growth promotion, order” value (CHO-K1 [1]) of the same substance?
Answer: The value was “cell growth was promoted”.

Question: Which “Absorbance (450 nm)” value (CHO-K1 [1]; 0.129 mM peptide) does the source give for Ala-Glu-Lys [AEK] here?
Answer: The value was 0.0350.

Question: What about the “Absorbance (450 nm)” value (CHO-K1 [1]; 0.259 mM peptide) of the same substance?
Answer: The value was 0.1143.

Question: What about the “Absorbance (450 nm)” value (CHO-K1 [1]; 0.516 mM peptide) of the same substance?
Answer: Its value is 0.1927.

Question: What about the “Absorbance (450 nm)” value (CHO-K1 [1]; 1.03 mM peptide) of the same substance?
Answer: The value was 0.2337.

Question: What about the “Absorbance (450 nm)” value (CHO-K1 [1]; 2.06 mM peptide) of the same substance?
Answer: Its value is 0.5013.

Question: And the “Absorbance (450 nm)” value (CHO-K1 [1]; 4.13 mM peptide)?
Answer: The value was 0.4857.

Question: And the “cell growth promotion, order” value (CHO-K1 [1])?
Answer: The value was “cell growth was promoted”.
